Publication PMC10673511, “Design, Synthesis and Bioactivity Evaluation of Heterocycle-Containing Mono- and Bisphosphonic Acid Compounds” (Molecules, 2023)
Converted amounts (≈) assume the structure as drawn. Like-named read-outs stand apart in the source and are kept apart here.

Legend:
[1] = system: Brassica napus L.; experiment: Pre-emergence herbicidal inhibition assay, Petri dish test, BN; type: in vivo; conditions: for EC50: Brassica napus, 168 h; for Relative activity ratio (BN root) / Relative activity ratio (BN stalk): relative to FOS
Experimental: (§1) The pre-emergence activity of the compounds against monocot Echinochloa crus-galli (EC) and dicot Brassica napus L. (BN) was evaluated using the standard Petri dish test. The compounds were dissolved in DMF, emulsified with Tween-80 and diluted with water to form stock solutions, each of which was further diluted to a gradient of 100, 50, 25, 10 and 1 mg/L for test. The test solutions were added to Petri dishes lined with a filter paper, on which 10 seeds of EC and BN were placed. After cultured in an intelligent climate chamber with a humidity of 65% at 26 °C for 7 days, the corresponding EC50 values were calculated.

[2] = system: Echinochloa crus-galli; experiment: Pre-emergence herbicidal inhibition assay, Petri dish test, EC; type: in vivo; conditions: for EC50: Echinochloa crus-galli, 168 h; for Relative activity ratio (EC root) / Relative activity ratio (EC stalk): relative to FOS
Experimental: as §1

[3] = biological target: recombinant E. coli DXR (EcDXR) (Escherichia coli, UniProt P45568); experiment: biochemical; conditions: read-out: InR (%) on DXR enzyme
[4] = system: Arabidopsis thaliana; experiment: Arabidopsis growth inhibition assay (24-well plates, green channel pixel value); conditions: Arabidopsis thaliana, 240 h; for EC50: read-out: EC50 against Arabidopsis growth; for pest or weed control at 100 µg/mL: read-out: InR (%) against Arabidopsis
[5] = root, 7 days, read-out: EC50 BN Root
[6] = stalk, 7 days, read-out: EC50 BN Stalk
[7] = root, 7 days, read-out: EC50 EC Root
[8] = stalk, 7 days, read-out: EC50 EC Stalk

recombinant E. coli DXR (EcDXR), sequence (P45568 whole entry): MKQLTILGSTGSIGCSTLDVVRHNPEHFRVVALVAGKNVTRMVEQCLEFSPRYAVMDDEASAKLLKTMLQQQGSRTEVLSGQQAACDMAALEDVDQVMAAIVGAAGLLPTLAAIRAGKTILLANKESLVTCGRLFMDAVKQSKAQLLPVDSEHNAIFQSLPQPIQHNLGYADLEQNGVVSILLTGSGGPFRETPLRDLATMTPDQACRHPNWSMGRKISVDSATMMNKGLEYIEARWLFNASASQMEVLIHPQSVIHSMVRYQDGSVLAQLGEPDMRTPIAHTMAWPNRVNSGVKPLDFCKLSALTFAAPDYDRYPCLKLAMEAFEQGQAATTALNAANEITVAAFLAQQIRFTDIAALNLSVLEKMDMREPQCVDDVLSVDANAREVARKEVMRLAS

SMILES	EC50 [1, 5]	EC50 [1, 6]	Relative activity ratio (BN root) [1]	Relative activity ratio (BN stalk) [1]	EC50 [2, 7]	EC50 [2, 8]	Relative activity ratio (EC root) [2]	Relative activity ratio (EC stalk) [2]	inhibition at 100 µM [3]	EC50 [4]	pest or weed control at 100 µg/mL [4]	melting point	EC50 ([1]; read-out: EC50 BN Root)	EC50 ([1]; read-out: EC50 BN Stalk)	EC50 ([2]; read-out: EC50 EC Root)	EC50 ([2]; read-out: EC50 EC Stalk)
CC(C)c1onc(O)c1CCP(=O)(O)O [Compound 6d]	67.5 µg/mL (≈ 287 µM)	38.2 µg/mL (≈ 162 µM)	0.5 fold	0.9 fold	40.1 µg/mL (≈ 171 µM)	25.7 µg/mL (≈ 109 µM)	1.0 fold	1.5 fold	17.3%	45.7 ± 4.8 µg/mL (≈ 194 µM)	100%					
Cc1onc(C(F)(F)F)c1CC(P(=O)(O)O)P(=O)(O)O [Compound 13i]	40.5 µg/mL (≈ 119 µM)	33.5 µg/mL (≈ 98.8 µM)	0.9 fold	1.0 fold	32.1 µg/mL (≈ 94.7 µM)	34.6 µg/mL (≈ 102 µM)	1.3 fold	1.1 fold	30.3%	40.7 ± 2.9 µg/mL (≈ 120 µM)	90.1%	240 to 241 °C				
O=P(O)(O)C(Cc1c(C(F)F)n[nH]c1O)P(=O)(O)O [Compound 12f]	15.6 µg/mL (≈ 48.4 µM)	22.3 µg/mL (≈ 69.2 µM)			36.5 µg/mL (≈ 113 µM)	12.6 µg/mL (≈ 39.1 µM)			6.1%	> 100 µg/mL	47%	228 to 229 °C				
CCCc1onc(O)c1CC(P(=O)(O)O)P(=O)(O)O [Compound 13c]	27.7 µg/mL (≈ 87.9 µM)	46.9 µg/mL (≈ 149 µM)	1.3 fold	0.7 fold	43.9 µg/mL (≈ 139 µM)	45.8 µg/mL (≈ 145 µM)	0.9 fold	0.8 fold	28.4%	48.4 ± 5.3 µg/mL (≈ 154 µM)	100%					
O=P(O)(O)C(Cc1c(C(F)(F)F)n[nH]c1O)P(=O)(O)O [Compound 12e]	> 100 µg/mL	45.7 µg/mL (≈ 134 µM)			46.8 µg/mL (≈ 138 µM)	> 100 µg/mL			22.8%	> 100 µg/mL	31.5%	225 to 226 °C				
CCc1n[nH]c(CC)c1CCP(=O)(O)O [Compound 5f]	> 100 µg/mL	> 100 µg/mL			71.6 µg/mL (≈ 308 µM)	31.4 µg/mL (≈ 135 µM)			32.4%	> 100 µg/mL	37.7%	> 250 °C				
CC(C)c1n[nH]c(O)c1CCP(=O)(O)O [Compound 5d]	> 100 µg/mL	96.9 µg/mL (≈ 414 µM)			32.1 µg/mL (≈ 137 µM)	> 100 µg/mL			17.7%	> 100 µg/mL	48.3%	210 to 211 °C				
CCCc1onc(O)c1CCP(=O)(O)O [Compound 6c]	99.7 µg/mL (≈ 424 µM)	33.7 µg/mL (≈ 143 µM)			65.4 µg/mL (≈ 278 µM)	41.1 µg/mL (≈ 175 µM)			7.5%	> 100 µg/mL	42%					
CCc1n[nH]c(CC)c1CC(P(=O)(O)O)P(=O)(O)O [Compound 12h]	40.1 µg/mL (≈ 128 µM)	22.3 µg/mL (≈ 71.4 µM)			44.2 µg/mL (≈ 142 µM)	31.1 µg/mL (≈ 99.6 µM)			2.3%	> 100 µg/mL	41.2%	> 250 °C				
CCCc1n[nH]c(O)c1CCP(=O)(O)O [Compound 5c]	> 100 µg/mL	48.2 µg/mL (≈ 206 µM)			76.3 µg/mL (≈ 326 µM)	10.6 µg/mL (≈ 45.3 µM)			6.1%	> 100 µg/mL	43.6%	228 to 229 °C				
Cc1n[nH]c(C(F)(F)F)c1CC(P(=O)(O)O)P(=O)(O)O [Compound 12i]	36.6 µg/mL (≈ 108 µM)	21.7 µg/mL (≈ 64.2 µM)	0.9 fold	1.5 fold	53.1 µg/mL (≈ 157 µM)	47.7 µg/mL (≈ 141 µM)	0.8 fold	0.8 fold	27.1%	88.3 ± 4.3 µg/mL (≈ 261 µM)	55.8%	> 250 °C				
CC(C)c1n[nH]c(O)c1CC(P(=O)(O)O)P(=O)(O)O [Compound 12d]	21.2 µg/mL (≈ 67.5 µM)	41.5 µg/mL (≈ 132 µM)			> 100 µg/mL	39.1 µg/mL (≈ 124 µM)			12.4%	> 100 µg/mL	44.8%	> 250 °C				
Cc1noc(C)c1CC(P(=O)(O)O)P(=O)(O)O [Compound 13g]	60.4 µg/mL (≈ 212 µM)	41.5 µg/mL (≈ 146 µM)			79.8 µg/mL (≈ 280 µM)	32.3 µg/mL (≈ 113 µM)			7.3%	> 100 µg/mL	39.7%	> 250 °C				
CCc1n[nH]c(O)c1CC(P(=O)(O)O)P(=O)(O)O [Compound 12b]	61.6 µg/mL (≈ 205 µM)	24.5 µg/mL (≈ 81.6 µM)			77.5 µg/mL (≈ 258 µM)	55.3 µg/mL (≈ 184 µM)			21.9%	> 100 µg/mL	29.6%	> 250 °C				
Cc1n[nH]c(C)c1CCP(=O)(O)O [Compound 5e]									23%	> 100 µg/mL	15.8%	> 250 °C	63 µg/mL (≈ 309 µM)	> 100 µg/mL	> 100 µg/mL	59.6 µg/mL (≈ 292 µM)
CC1(C)CON(CCCP(=O)(O)O)C1=O [Compound 19]	79.3 µg/mL (≈ 334 µM)	39.2 µg/mL (≈ 165 µM)	0.4 fold	0.8 fold	> 100 µg/mL	88 µg/mL (≈ 371 µM)	0.4 fold	0.4 fold	22.5%	> 100 µg/mL	43.2%	> 250 °C				
Cc1n[nH]c(C)c1CC(P(=O)(O)O)P(=O)(O)O [Compound 12g]	> 100 µg/mL	32.9 µg/mL (≈ 116 µM)			38.8 µg/mL (≈ 137 µM)	31.4 µg/mL (≈ 111 µM)			11.6%	> 100 µg/mL	40.4%	> 250 °C				
CCc1n[nH]c(O)c1CCP(=O)(O)O [Compound 5b]									12.9%	> 100 µg/mL	26.5%	217 to 218 °C	> 100 µg/mL	> 100 µg/mL	86.7 µg/mL (≈ 394 µM)	92.2 µg/mL (≈ 419 µM)
Cc1noc(C)c1CCP(=O)(O)O [Compound 6e]									12.1%	> 100 µg/mL	12.3%	> 250 °C	> 100 µg/mL	68.4 µg/mL (≈ 333 µM)	> 100 µg/mL	54.1 µg/mL (≈ 264 µM)
CCc1onc(O)c1CCP(=O)(O)O [Compound 6b]									19.5%	> 100 µg/mL	46.5%		70.1 µg/mL (≈ 317 µM)	65.8 µg/mL (≈ 298 µM)	24.7 µg/mL (≈ 112 µM)	36.1 µg/mL (≈ 163 µM)
CCc1onc(O)c1CC(P(=O)(O)O)P(=O)(O)O [Compound 13b]	38.8 µg/mL (≈ 129 µM)	20.2 µg/mL (≈ 67.1 µM)	0.9 fold	1.6 fold	29.9 µg/mL (≈ 99.3 µM)	35.3 µg/mL (≈ 117 µM)	1.3 fold	1.1 fold	27.4%	37.7 ± 2.8 µg/mL (≈ 125 µM)	100%					
Cc1n[nH]c(O)c1CCP(=O)(O)O [Compound 5a]									11.9%	> 100 µg/mL	24%	220 to 221 °C	> 100 µg/mL	32.8 µg/mL (≈ 159 µM)	54.1 µg/mL (≈ 262 µM)	68.5 µg/mL (≈ 332 µM)
CCc1noc(CC)c1CCP(=O)(O)O [Compound 6f]	> 100 µg/mL	> 100 µg/mL			> 100 µg/mL	41.7 µg/mL (≈ 179 µM)			11.7%	> 100 µg/mL	13.4%	> 250 °C				
Cc1n[nH]c(O)c1CC(P(=O)(O)O)P(=O)(O)O [Compound 12a]	51.3 µg/mL (≈ 179 µM)	87.1 µg/mL (≈ 304 µM)			> 100 µg/mL	47.7 µg/mL (≈ 167 µM)			13.7%	> 100 µg/mL	47.2%	> 250 °C				
CCCc1n[nH]c(O)c1CC(P(=O)(O)O)P(=O)(O)O [Compound 12c]	55.1 µg/mL (≈ 175 µM)	33.1 µg/mL (≈ 105 µM)			68.3 µg/mL (≈ 217 µM)	36.4 µg/mL (≈ 116 µM)			32.3%	> 100 µg/mL	49.7%	> 250 °C				
CCc1noc(CC)c1CC(P(=O)(O)O)P(=O)(O)O [Compound 13h]	39.2 µg/mL (≈ 125 µM)	50.8 µg/mL (≈ 162 µM)			48 µg/mL (≈ 153 µM)	45.7 µg/mL (≈ 146 µM)			10.3%	> 100 µg/mL	43.2%	> 250 °C				
